The target of test [1] is unphosphorylated STAT3 monomer (uSTAT3) SH2 domain (Homo sapiens, UniProt P40763). The test is described as follows: Fluorescence polarisation assay for the inhibition of STAT3 dimerisation. In kind it is binding. The conditions noted are these: 350 nM uSTAT3, 10 nM FAM-pYLPQTV, 100 μM ligand; average of triplicate. The source says:
Fluorescence Polarisation Assay for the Inhibition of STAT3 Dimerisation
The compounds were subjected to an in vitro fluorescent polarisation (FP)-based primary PPI binding screen to assess their ability to inhibit STAT3 dimerisation by interacting with the SH2 domain. In this FP assay, the unphosphorylated STAT3 monomer (uSTAT3) and a surrogate peptide FAM-pYLPQTV were used to form a ‘pseudo-dimer’. The assay is based on the concept that the compounds were expected to displace the surrogate peptide from the uSTAT3 resulting in a fluorescent read out.
Specifically, for the FP assay, a black (CORNING™) 96 well plate was thoroughly washed with distilled water and allowed to dry. A 100 nM FAM-pYLPQTV working solution was prepared from 10 μM FAM-pYLPQTV stock solution (in DMSO) using PBS pH 7.4 Buffer. 10 μl FAM-pYLPQTV was added to 350 nM uSTAT3 protein, the final concentration of protein in each well, in 90 μl PBS buffer pH 7.4. The MP value of the surrogate dimer complex was measured using a fluorescent plate reader (Envision™, Perkin Elmer™, USA), which provided the base MP value. The inhibitor solution was then added to the well and the assay plate was placed on a shaker for 5 minutes. The MP value for each well was then measured again. A shift in fluorescent values was observed due to displacement of the fluorescently-labelled surrogate peptide by the inhibitors, and the average inhibition for each inhibitor could be calculated as described below:
Base MP value (X) for each well=MP value of Protein and Probe (350 nm STAT3+10 nM FAM-pYLPQTV)−MP value of free FAM-pYLPQTV
Inhibitor MP value (Y) for each well=MP value of Protein+Probe+Inhibitor (350 nm uSTAT3+10 nM FAM-pYLPQTV+2 μL Inhibitor)−MP value of free FAM-pYLPQTV with 2 μL DMSO
% inhibition by any ligand/peptide=(X−Y)/X*100
For comparison purpose, the % inhibition produced by 100 μM pYLKTKF was considered to be 100%, and the inhibition produced by different ligands was reported as relative to 100 μM pYLKTKF.
% Inhibition produced by 100 μM pYLKTKF=A
% Inhibition produced by 100 μM Ligand=B
Relative inhibition (%)=B/A*100
The experiment was carried out in triplicate, and average values were taken as the measure of PPI inhibition.
On the technique in general: Polarisation of emitted light reports the rotation of a fluorescent probe.

Test [2] has as its system MDA-MB-231 breast (STAT3-dependent) cancer cell line. The test is described as follows: MTT cell viability assay, MDA-MB-231. It is filed as cell-based, human. The conditions noted are these: for IC50: MTT, 48 hours exposure (table title); for Selectivity ratio: STAT3-null A4 versus STAT3-dependent MDA-MB-231. An excerpt: (§1) MTT Cell viability assay with both MDA-MB-231 breast (STAT3-dependent) and A4 (STAT3-null) cancer cell lines.
(§2) After observing significant STAT3 dimerisation inhibitory activity in the preliminary FP assay, the target ligand and related fragments were progressed to an MTT cytotoxicity assay to evaluate in a STAT3-dependent tumour cell line (MDA MB 231, breast cancer) and a STAT3 null A4 cell line. It was anticipated that the compounds would show selective toxicity towards the STAT3-dependent MDA MB 231 cell line and would have lost activity in the STAT3 null A4 cell line if the mechanism of action was STAT3-mediated.
(§3) For each cell line, a total of 10,000 cells were seeded for 24 hours before addition of the inhibitors. The cells were grown in normal cell culture conditions at 37° C. under a 5% CO2 humidified atmosphere using an appropriate medium. The cell count was adjusted to 10^5 cells/ml, and 5,000-20,000 cells were added per well depending on the cell line. The cells were then incubated for 24 hours, and 1 μl aliquots of the inhibitors were added to the wells in triplicate. […] Absorbance was quantified by spectrophotometry at A=570 nm (Envision™ Plate Reader, PerkinElmer™, USA). IC50 values were calculated by a dose-response analysis using the Prism GraphPad Prism® software package.
(In general: Tetrazolium assays rely on reduction of a dye to a coloured formazan, in cell work by metabolically active cells.)

Test [3] deals with A4 (STAT3-null) cancer cell line. The test is described as follows: MTT cell viability assay, A4. It is filed as cell-based.
Excerpt: as §1, §2, §3

[4] abbreviates: 48 hours exposure (table title).

What is called inhibition is the share of the control response that was lost under treatment. Low readings indicate little suppression, high ones strong suppression. A word on the IC50: it is the concentration needed to halve the response being measured. High values mean weaker potency, low ones greater potency. Usually % Inhibition stands for the drop in the measured response relative to a control, in per cent. The low end stands for little suppression, the high end for strong suppression.

unphosphorylated STAT3 monomer (uSTAT3) SH2 domain, sequence (P40763 whole entry, the tested form may be a part): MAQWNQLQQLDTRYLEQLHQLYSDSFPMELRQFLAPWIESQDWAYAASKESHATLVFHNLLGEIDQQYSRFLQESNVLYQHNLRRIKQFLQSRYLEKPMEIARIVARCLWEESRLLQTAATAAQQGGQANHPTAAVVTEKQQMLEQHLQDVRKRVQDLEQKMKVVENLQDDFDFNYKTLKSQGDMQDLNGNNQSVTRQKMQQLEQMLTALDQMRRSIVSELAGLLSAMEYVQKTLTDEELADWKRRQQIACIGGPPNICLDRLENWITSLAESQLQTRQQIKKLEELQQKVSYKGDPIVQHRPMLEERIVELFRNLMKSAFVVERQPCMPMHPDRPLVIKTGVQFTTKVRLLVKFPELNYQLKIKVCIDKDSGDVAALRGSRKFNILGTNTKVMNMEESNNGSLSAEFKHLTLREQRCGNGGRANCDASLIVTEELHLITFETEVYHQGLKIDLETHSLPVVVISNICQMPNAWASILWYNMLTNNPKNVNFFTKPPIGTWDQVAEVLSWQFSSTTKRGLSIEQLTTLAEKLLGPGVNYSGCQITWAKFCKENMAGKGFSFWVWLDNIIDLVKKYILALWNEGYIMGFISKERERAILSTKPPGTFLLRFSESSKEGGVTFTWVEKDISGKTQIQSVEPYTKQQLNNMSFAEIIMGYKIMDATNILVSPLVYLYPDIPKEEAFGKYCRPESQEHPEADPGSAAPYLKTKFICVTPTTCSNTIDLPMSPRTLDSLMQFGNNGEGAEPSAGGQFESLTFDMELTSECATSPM

The molecule `COC(=O)c1ccc(N(C)S(=O)(=O)c2cc(C(=O)Nc3ccc(OCCN4CCOCC4)cc3)sc2-c2ccc(C#N)cc2)cc1` [Compound 16, methyl 4-((2-(4-cyanophenyl)-N-methyl-5-((4-(2-morpholinoethoxy)phenyl)carbamoyl)thiophene)-3-sulfonamido)benzoate] yielded an inhibition at 100 µM in test [1] of 47.9%. Besides, the IC50 stood at 1.1 µM in test [2] (Homo sapiens, MDA-MB-231, 48 h) and 35.6 µM in test [3] (exposure (table title)). For the same molecule, the Selectivity ratio in test [2] was 32.36.

Turning to `COC(=O)c1ccc(N(C)S(=O)(=O)c2cc(C(=O)NCc3ccc(OCCN4CCOCC4)cc3)sc2Br)cc1` [Compound 25, methyl 4-((2-bromo-N-methyl-5-((4-(2-morpholinoethoxy)benzyl)carbamoyl)thiophene)-3-sulfonamido)benzoate], the “% Inhibition” value in test [1] amounted to 49.62%. In addition, the IC50 was found to be 3.6 µM in test [2] and 43.6 µM in test [3] (setting [4]).

In the case of `COC(=O)c1ccc(N(C)S(=O)(=O)c2cc(C(=O)Nc3ccc(N4CCN(C(=O)c5cc6ccccc6o5)CC4)cc3)sc2Br)cc1` [Compound 39, methyl 4-((5-((4-(4-(benzofuran-2-carbonyl)piperazin-1-yl)phenyl)carbamoyl)-2-bromo-N-methylthiophene)-3-sulfonamido)benzoate], in test [1], the “% Inhibition” value amounted to 36.44%. Besides, the IC50 came to 4.8 µM in test [2] and 43.2 µM in test [3] (setting [4]).

With `COC(=O)c1ccc(N(C)S(=O)(=O)c2cc(C(=O)Nc3cccc(N4CCCCC4)c3)sc2Br)cc1` [Compound 28, methyl 4-((2-bromo-N-methyl-5-((3-(piperidin-1-yl)phenyl)carbamoyl)thiophene)-3-sulfonamido)benzoate], at 100 µM the inhibition in test [1] was 51.3%. Moreover, the IC50 in test [2] (Homo sapiens, MDA-MB-231, 48 h) was 6.5 µM; in test [3] (exposure (table title)), 42.7 µM. In test [2], the Selectivity ratio is 6.56.

`COC(=O)c1ccc(N(C)S(=O)(=O)c2cc(C(=O)Nc3ccc4[nH]c(Cc5ccccc5)nc4c3)sc2Br)cc1` [Compound 35, methyl 4-((5-((2-benzyl-1H-benzo[d]imidazol-5-yl)carbamoyl)-2-bromo-N-methylthiophene)-3-sulfonamido)benzoate] returned an inhibition at 100 µM in test [1] of 33.3%. The IC50 in test [2] (Homo sapiens, MDA-MB-231, 48 h) amounted to 4.45 µM; in test [3] (exposure (table title)), 38.7 µM. Besides, the Selectivity ratio in test [2] stood at 8.69.

In turn, `COC(=O)c1ccc(N(C)S(=O)(=O)c2cc(C(=O)Nc3cccc(-c4csc(C)n4)c3)sc2Br)cc1` [Compound 38, methyl 4-((2-bromo-N-methyl-5-((3-(2-methylthiazol-4-yl)phenyl)carbamoyl)thiophene)-3-sulfonamido)benzoate] registered an inhibition at 100 µM in test [1] of 29.2%. In addition, the IC50 in test [2] (Homo sapiens, MDA-MB-231, 48 h) came out at 11.6 µM; in test [3] (exposure (table title)), 54.1 µM. Moreover, in test [2], the Selectivity ratio is 4.67.

`COC(=O)c1ccc(N(C)S(=O)(=O)c2cc(C(=O)NCc3ccc(CN4CCCCC4)cc3)sc2-c2ccc(N3CCCCC3)cc2)cc1` [Compound 2, methyl 4-((N-methyl-2-(4-(piperidin-1-yl)phenyl)-5-((4-(piperidin-1-ylmethyl)benzyl)carbamoyl)thiophene)-3-sulfonamido)benzoate] had an inhibition at 100 µM in test [1] of 51.2%. Also, the IC50 in test [2] (Homo sapiens, MDA-MB-231, 48 h) was found to be 2.12 µM; in test [3] (exposure (table title)), 84.3 µM. Further, in test [2], the Selectivity ratio is 39.76.

Consider `COC(=O)c1ccc(N(C)S(=O)(=O)c2cc(C(=O)Nc3ccc(N4CCOCC4)nc3)sc2Br)cc1` [Compound 30, methyl 4-((2-bromo-N-methyl-5-((6-morpholinopyridin-3-yl)carbamoyl)thiophene)-3-sulfonamido)benzoate], for which, in test [1], at 100 µM the inhibition was 19.5%. The IC50 in test [2] (Homo sapiens, MDA-MB-231, 48 h) came out at 24.6 µM; in test [3] (exposure (table title)), 82.3 µM. Moreover, the Selectivity ratio in test [2] was determined as 3.34.

Take `COC(=O)c1ccc(N(C)S(=O)(=O)c2cc(C(=O)Nc3ccc(OCCN4CCOCC4)cc3)sc2Br)cc1` [Compound 29, methyl 4-((2-bromo-N-methyl-5-((4-(2-morpholinoethoxy)phenyl)carbamoyl)thiophene)-3-sulfonamido)benzoate]: the “% Inhibition” value in test [1] was found to be 42.90%. Moreover, the values for the IC50 in test [2] and in test [3] (setting [4]) were 5.8 µM and 53.6 µM, respectively.

With `COC(=O)c1ccc(N(C)S(=O)(=O)c2cc(C(=O)Nc3ccc(CN4CCOCC4)cc3)sc2Br)cc1` [Compound 23, methyl 4-((2-bromo-N-methyl-5-((4-(morpholinomethyl)phenyl)carbamoyl)thiophene)-3-sulfonamido)benzoate], the inhibition at 100 µM in test [1] worked out at 31.3%. Further, the 50% inhibitory concentration (IC50) in test [2] (Homo sapiens, MDA-MB-231, 48 h) worked out at 12.5 µM; in test [3] (exposure (table title)), 54.3 µM. Besides, the Selectivity ratio in test [2] is listed as 4.34.

In the case of `COC(=O)c1ccc(N(C)S(=O)(=O)c2cc(C(=O)Nc3cccc(N4CCCCC4)c3)sc2-c2ccc(N3CCCCC3)cc2)cc1` [Compound 19, methyl 4-((N-methyl-2-(4-(piperidin-1-yl)phenyl)-5-((3-(piperidin-1-yl)phenyl)carbamoyl)thiophene)-3-sulfonamido)benzoate], at 100 µM the inhibition in test [1] was 43.7%. For the same molecule, the IC50 in test [2] (Homo sapiens, MDA-MB-231, 48 h) is 3.2 µM; in test [3] (exposure (table title)), 34.6 µM. In addition, the Selectivity ratio in test [2] is on record as 10.81.

Consider `COC(=O)c1ccc(N(C)S(=O)(=O)c2cc(C(=O)NCc3ccc(N4CCN(C)CC4)cc3)sc2Br)cc1` [Compound 32, methyl 4-((2-bromo-N-methyl-5-((4-(4-methylpiperazin-1-yl)benzyl)carbamoyl)thiophene)-3-sulfonamido)benzoate], for which 100 µM produced 6.18% inhibition in test [1]. For the same molecule, the IC50 in test [2] (Homo sapiens, MDA-MB-231, 48 h) is 7.65 µM; in test [3] (exposure (table title)) it was 74.5 µM. Besides, in test [2], the Selectivity ratio is listed as 9.73.

On to `COC(=O)c1ccc(N(C)S(=O)(=O)c2cc(C(=O)Nc3ccc(N4CCCCC4)cc3)sc2-c2ccc(N3CCCCC3)cc2)cc1` [Compound 18, methyl 4-((N-methyl-2-(4-(piperidin-1-yl)phenyl)-5-((4-(piperidin-1-yl)phenyl)carbamoyl)thiophene)-3-sulfonamido)benzoate], for which the inhibition at 100 µM in test [1] worked out at 45.8%. Moreover, the IC50 came to 3.5 µM in test [2] (Homo sapiens, MDA-MB-231, 48 h) and 45.3 µM in test [3] (exposure (table title)). Further, the Selectivity ratio in test [2] came to 12.94.

`COC(=O)c1ccc(N(C)S(=O)(=O)c2cc(C(=O)Nc3ccc(Cc4nc5cc(C)ccc5[nH]4)cc3)sc2Br)cc1` [Compound 34, methyl 4-((2-bromo-N-methyl-5-((4-((5-methyl-1H-benzo[d]imidazol-2-yl)methyl)phenyl)carbamoyl)thiophene)-3-sulfonamido)benzoate] yielded an inhibition at 100 µM in test [1] of 35.4%. For the same molecule, the half-maximal inhibitory concentration (IC50) turned out to be 7.32 µM in test [2] (Homo sapiens, MDA-MB-231, 48 h) and 65.4 µM in test [3] (exposure (table title)). In test [2], the Selectivity ratio is 8.93.

For `COC(=O)c1ccc(N(C)S(=O)(=O)c2cc(C(=O)Nc3ccc(OCCN4CCOCC4)cc3)sc2-c2ccc(C(=O)N3CCOCC3)cc2)cc1` [Compound 12, methyl 4-((N-methyl-2-(4-(morpholine-4-carbonyl)phenyl)-5-((4-(2-morpholinoethoxy)phenyl)carbamoyl)thiophene)-3-sulfonamido)benzoate], the inhibition at 100 µM in test [1] was determined as 59.4%. For the same molecule, the IC50 was 3.91 µM in test [2] (Homo sapiens, MDA-MB-231, 48 h) and 75.4 µM in test [3] (exposure (table title)). In test [2], the Selectivity ratio is listed as 19.28.
